In US9504671B2, “Pharmaceutical compositions of spiro-oxindole compound for topical administration and their use as therapeutic agents” (Xenon Pharmaceuticals Inc., priority 2010, dated 2016):

Tests used:
[1] = test system: STZ-induced neuropathic pain model; experiment: STZ model of diabetic neuropathy, von Frey; assay type: in vivo, male Sprague-Dawley rats; conditions: 50 mg on left foot, 30 minutes post-dosing
From the text: This study evaluates the efficacy of a pharmaceutical composition of the invention in the STZ-induced neuropathic pain model in male Sprague-Dawley rats, following acute dosing, as compared with a 5% (w/v) topical Lidocaine (Xylocaine®) and a 1.16% (w/v) topical Diclofenac (Voltaren®). A rodent model of painful peripheral diabetic neuropathy (PDN) that mimics human condition was created by inducing a diabetic state in the rat through the ablation of the insulin producing pancreatic beta cells. A single streptozotocin (STZ) injection destroys beta cells in rats and produces a diabetic state that over time progresses to painful Peripheral Diabetic Neuropathy (PDN).
Streptozotocin (STZ) was dissolved in citrate buffer (20 mM, pH 4.5) and administered at a dose of 60 mg/Kg, intraperitoneal, to induce pancreatic beta-cell death. Blood glucose level was measured once a week following injection, using the AccuSoft Blood Glucose Monitoring System. […] Hyperalgesia and allodynia, which are signs of diabetic neuropathic pain, were monitored using the von Frey test as described below. Von Frey measurements were recorded from both left and right paws. Only those with significant hyperalgesia as determined by reduced threshold, measured in grams, of paw withdrawal to the von Frey filament were enrolled in the study. […] During this time their health status was closely monitored.
The animals were randomly divided into 4 test groups (n=7 animals/group) including a vehicle control, a 5% (w/v) Lidocaine (Xylocaine®), a 1.16% (w/v) Diclofenac (Voltaren®), and a pharmaceutical composition with 4% (w/w) COMPOUND A. After baseline measurement, 50 mg of the test composition was applied on the entire left foot. […] The paw withdrawal thresholds of animals from mechanical tactile stimuli were measured using the Electrovonfrey anesthesiometer (Model 2290, IITC Life Science, Woodland Hills, Calif.). […] The force (g) required to elicit a crisp withdrawal response was recorded before dosing as a baseline measurement, and at 30 minutes post-dosing. […]

[2] = test system: CCI-induced neuropathic pain model; experiment: time course of efficacy in neuropathic pain model, Chronic Constriction Injury, von Frey; assay type: in vivo, Sprague-Dawley rats
Method: Neuropathic pain is characterized by spontaneous pain and stimulus-evoked allodynia and hyperalgesia. Pharmaceutical compositions of the invention were evaluated in Chronic Constriction Injury model using Sprague-Dawley rats as described below.
An approximately 3 cm incision was made through the skin and the fascia at the mid thigh level of a rat's left hind leg using a no. 10 scalpel blade. The left sciatic nerve was exposed via blunt dissection through the biceps femoris with care to minimize haemorrhagia. Four loose ligatures were tied along the sciatic nerve using four chromic gut sutures at intervals of 1 mm to 2 mm apart. The tension of the loose ligatures was tight enough to induce slight constriction of the sciatic nerve when viewed under a dissection microscope at a magnification of 4 fold. As sham controls, the right sciatic nerve was exposed and manipulated in the same manner as described above, except sutures were not tied onto the nerve. Antibacterial ointment was applied directly into the wound, and the muscle was closed using sterilized sutures. Betadine® was applied onto the muscle and its surroundings, followed by skin closure with surgical clips.
A painful neuropathy was allowed to develop for at least 14 days in the ipsilateral leg as determined by lower paw withdrawal thresholds to a mechanical stimulus. Only those with significant hyperalgesia, as determined by reduced threshold of paw withdrawal to the von Frey filament, measured in grams, were enrolled in the study.
The response thresholds of animals to tactile stimuli were measured using the Model 2290 Electrovonfrey anesthesiometer (IITC Life Science, Woodland Hills, Calif.). Animals were placed in an elevated Plexiglass enclosure set on a mire mesh surface. After 15 minutes of accommodation, a von Frey hair was applied perpendicularly to the plantar surface of the ipsilateral hind paws of the animals with sufficient force, measured in grams, to elicit a crisp response of the paw. The response indicated a withdrawal from the painful stimulus and constituted the efficacy endpoint. The force (in grams) required to elicit a crisp withdrawal response was recorded before dosing as a baseline measurement, and at multiple time points post-dosing.
Three days prior to baseline measurement, animals were anaesthetized under isoflurane and the whole of the ipsilateral hind legs, including the upper sciatic notch thigh area, ankle and foot, was shaved. The animals were then randomly assigned to one of 4 different test groups including a vehicle control group, a 5% (w/v) Lidocaine (Xylocaine®), and 2 pharmaceutical compositions of the invention comprising COMPOUND A at 4% (w/w) containing either 5% or 10% Transcutol® P. After baseline measurement, 100 mg of the test composition was applied on the entire shaved area. The animals were then placed in plastic tubes for at least 15 minutes, to prevent early removal/ingestion of drug. Subsequently, animals were placed in the Plexiglas enclosure 15 minutes before von Frey measurement at the respective time points. Von Frey withdrawal thresholds were measured as the mean of several independent determinations made within 1-2 minutes of each other on the affected paw of each animal at 0.5, 1 and 2 hours post dosing.

SMILES	paw withdrawal threshold of treated paw, CFB ([1]; 1.16% (w/v) topical)	paw withdrawal threshold, percent mean change from baseline (CFB) ([2]; 5% (w/v) topical, 100 mg applied, 0.5 hours post-dosing)	paw withdrawal threshold, CFB ([2]; 5% (w/v) topical, time points later than 0.5 hours post-dosing, p>0.05)	duration of analgesic effects post-dosing ([2]; 5% topical)	paw withdrawal threshold of treated paw, percent mean change from baseline (CFB) ([1]; 5% (w/v) topical)
O=C(O)Cc1ccccc1Nc1c(Cl)cccc1Cl [Diclofenac]	No significant CFB	–	–	–	–
CCN(CC)CC(=O)Nc1c(C)cccc1C [Lidocaine, reference compound]	–	+23.1%	No significant changes	up to 0.5 hours	25.9%
